According to PMC7551609 (Viruses, 2020):
pEC50: −log10 of the molar value. “Also recorded” adds a separate entry of the source. Counter-ions that a name gives are not always drawn. Like-named read-outs stand apart in the source and are kept apart here.

Key:
Vero cells [1] = experiment: MTT cell viability assay in Vero cells; format: cell-based, African green monkey; conditions: non-infected Vero cells, 36 h post-treatment
Vero cells [2] = experiment: XTT cell proliferation assay in Vero cells; format: cell-based, African green monkey; conditions: non-infected Vero cells, 36 h post-treatment
ZIKV Paraiba/2015 [3] = experiment: Viral inhibition assay, post-infection treatment, Vero cells; format: cell-based, Zika virus; conditions: for pEC50: ZIKV Paraiba/2015, Vero cells, post-infection treatment, 36 h; for MIC: read-out: Post-treatment MIC (maximum effective concentration)
ZIKV Paraiba/2015 [4] = experiment: Viral inhibition assay, pre-treatment (prophylactic), Vero cells; format: cell-based, Zika virus; conditions: for pEC50: ZIKV Paraiba/2015, Vero cells, pre-treatment 12 h before infection; for MIC: read-out: Pre-treatment MIC (maximum effective concentration)
ZIKV Paraiba/2015 [5] = experiment: Viral inhibition assay, co-treatment, Vero cells; format: cell-based, Zika virus; conditions: for Co-treatment MIC (maximum effective concentration): Vero cells, ZIKV Paraiba/2015, co-treatment; for inhibitor category based on SI-MTT / inhibitor category based on SI-MTT and SI-XTT / inhibitor category based on SI-XTT: co-treatment, Paraiba/2015, Vero
ZIKV MR-766 strain = experiment: Viral inhibition assay, post-treatment, old World strain, Vero cells; format: cell-based, Zika virus; conditions: for pEC50: old World ZIKV MR-766, Vero cells, post-treatment; for MIC: old World ZIKV MR-766 strain, read-out: MR766 MIC (maximum effective concentration)
ZIKV PRVABC59 strain = experiment: Viral inhibition assay, post-treatment, new World strain, Vero cells; format: cell-based, Zika virus; conditions: for pEC50: new World ZIKV PRVABC59, Vero cells, post-treatment, 48 h; for MIC: read-out: PRVABC59 MIC (maximum effective concentration)
ZIKV Paraiba/2015 [6] = experiment: Viral inhibition assay, post-treatment, human A549 cells; format: cell-based, Zika virus; conditions: for inhibitor category based on SI-MTT and SI-XTT: Paraiba/2015, A549 cells; for pEC50: ZIKV Paraiba/2015, A549 cells, post-treatment, 36 h; for MIC: in Homo sapiens, read-out: A549 cells MIC (maximum effective concentration)
A549 cells [7] = experiment: MTT cell viability in A549 cells; format: cell-based, human; conditions: highest concentration used 50.00 µM, sentence also cites [17]
A549 cells [8] = experiment: XTT cell proliferation in A549 cells; format: cell-based, human; conditions: highest concentration used 50.00 µM, sentence also cites [17]
ZIKV Paraiba/2015 [9] = experiment: Growth kinetics inhibition assay (infectious viral progeny), Vero cells; format: cell-based, Zika virus
[10] = MTT cell viability assay in Vero cells; format: cell-based, African green monkey; conditions: African green monkey, confluent monolayers; non-infected Vero cells, 36 h post-treatment
[11] = XTT cell proliferation assay in Vero cells; format: cell-based, African green monkey; conditions: African green monkey, confluent monolayers; non-infected Vero cells, 36 h post-treatment
[12] = MTT cell viability in A549 cells; format: cell-based, human; conditions: human, highest concentration used 50.00 µM, sentence also cites [17]
[13] = XTT cell proliferation in A549 cells; format: cell-based, human; conditions: human, highest concentration used 50.00 µM, sentence also cites [17]
ZIKV DAKAR B11514 = system: ZIKV DAKAR B11514; design: method as in ref 32, 34 = [32]; conditions: ZIKV DAKAR B11514, Vero cells; cited from earlier work
ZIKV MR-766 [14] = conditions: ZIKV MR-766, Vero cells; cited from earlier work
ZIKV PRVABC59 = conditions: ZIKV PRVABC59, Vero cells; cited from earlier work
ZIKV KX197192.1 strain = system: ZIKV KX197192.1 strain; design: method as in ref 32, 34 = [32]; conditions: Huh7 cells; cited from earlier work
ZIKV MR-766 [15] = conditions: ZIKV MR-766, Vero cells, pre-treatment conditions; cited from earlier work
ZIKV-MEX-2-81 = conditions: ZIKV MEX-2-81, U2OS cells; cited from earlier work
ZIKV SL1602 strain = conditions: ZIKV SL1602, Vero cells; cited from earlier work
ZIKV MEX_I_7 strain = conditions: ZIKV MEX_I_7, Huh7, HeLa and HAEC cells; cited from earlier work
[16] = system: ZIKV cocktail of MR-766, FSS13025, and MEX-2-81 strains; conditions: JEG-3 and HBME cells; cited from earlier work
ZIKV FB-GWUH-2016 = system: ZIKV FB-GWUH-2016; design: method as in ref 27 = [27]; conditions: ZIKV FB-GWUH-2016, RPE cells; cited from earlier work
[17] = system: ZIKV cocktail of MR-766, FSS13025, and MEX-2-81; conditions: JEG-3 cells, ZIKV cocktail of MR-766, FSS13025, MEX-2-81; cited from earlier work
[18] = post-treatment, Paraiba/2015, Vero
[19] = pre-treatment, Paraiba/2015, Vero
[20] = Zika virus, new World ZIKV PRVABC59
[21] = 0.1, 1, 10 EC50, all time points (24, 48, 72 h post-treatment), MOI 0.1

Molecule | inhibitor category based on SI-MTT and SI-XTT (ZIKV Paraiba/2015 [3]; [18]) | inhibitor category based on SI-MTT (ZIKV Paraiba/2015 [4]; [19]) | inhibitor category based on SI-XTT (ZIKV Paraiba/2015 [4]; [19]) | Co-treatment MIC (maximum effective concentration) (ZIKV Paraiba/2015 [5]) | inhibitor category based on SI-MTT (ZIKV Paraiba/2015 [5]) | inhibitor category based on SI-MTT and SI-XTT (ZIKV Paraiba/2015 [5]) | inhibitor category based on SI-MTT and SI-XTT (ZIKV MR-766 strain; ZIKV MR-766, Vero) | inhibitor category based on SI-MTT and SI-XTT (ZIKV PRVABC59 strain; ZIKV PRVABC59, Vero) | inhibitor category based on SI-MTT and SI-XTT (ZIKV Paraiba/2015 [6]) | CC50 at 36 h [10] | CC50 at 36 h [11] | pEC50 (ZIKV Paraiba/2015 [3]) | pEC50 (ZIKV Paraiba/2015 [3]; Zika virus, Vero) | MIC (ZIKV Paraiba/2015 [3]; Zika virus) | MIC (ZIKV Paraiba/2015 [4]; Zika virus) | pEC50 (ZIKV Paraiba/2015 [4]; Zika virus) | pEC50 (ZIKV MR-766 strain; Zika virus) | MIC (ZIKV MR-766 strain; Zika virus) | pEC50 (ZIKV PRVABC59 strain; Zika virus) | MIC (ZIKV PRVABC59 strain; [20]) | further results
2′,3′,5′-Triacetyl-6-azauridine [Azaribine] | most potent; also recorded: potent | moderate | weakest and weak | > 100.00 µM | Potent | potent | weak | moderate | weak |  |  |  |  |  |  |  |  |  |  |  | CC50 (Vero cells [1]): 237 µM; CC50 (Vero cells [2]): > 1350 µM; Post-treatment MIC (maximum effective concentration) (ZIKV Paraiba/2015 [3]; Vero cells, ZIKV Paraiba/2015, post-treatment): > 100.00 µM; pEC50 (ZIKV Paraiba/2015 [3]; read-out: EC50): 5.79; Pre-treatment MIC (maximum effective concentration) (ZIKV Paraiba/2015 [4]; Vero cells, ZIKV Paraiba/2015, pre-treatment): > 100.00 µM; pEC50 (ZIKV Paraiba/2015 [4]): 4.33; pEC50 (ZIKV Paraiba/2015 [5]; ZIKV Paraiba/2015, Vero cells, co-treatment (virus pre-incubated with compound 1 h), read-out: EC50): 5.59; inhibitor category based on SI-XTT (ZIKV Paraiba/2015 [5]): potent; pEC50 (ZIKV MR-766 strain): 5.61; MIC (ZIKV MR-766 strain): < 11.10 µM; PRVABC59 MIC (maximum effective concentration) (ZIKV PRVABC59 strain; new World ZIKV PRVABC59): < 11.10 µM; pEC50 (ZIKV PRVABC59 strain): 5.95; A549 cells MIC (maximum effective concentration) (ZIKV Paraiba/2015 [6]; A549 cells): < 11.10 µM; pEC50 (ZIKV Paraiba/2015 [6]): 6.17; CC50 (A549 cells [7]): > 50 µM; CC50 (A549 cells [8]): > 50 µM; effect on production of infectious viral progeny (viral titers) (ZIKV Paraiba/2015 [9]; 24 h post-treatment and at 10 EC50 at 48 and 72 h post-treatment): significant effect
O=c1cnn([C@@H]2O[C@H](CO)[C@@H](O)[C@H]2O)c(=O)[nH]1 [Azauridine, 6-azauridine] | moderate to weak |  | weakest | < 100.00 µM | weak | weak | moderate | moderate | moderate | 156 µM | > 1350 µM | 5.37 | 5.43 | > 100 µM | > 100 µM | 4.19 | 6.12 | < 3.7 µM | 5.84 | < 11.1 µM | inhibitor category based on SI-MTT and SI-XTT (ZIKV Paraiba/2015 [4]; [19]): weak; MIC (ZIKV Paraiba/2015 [6]; Zika virus): < 1.23 µM; pEC50 (ZIKV Paraiba/2015 [6]; Zika virus): 6.36; CC50 [12]: > 50 µM; CC50 [13]: > 50 µM; effect on production of infectious viral progeny (viral titers) (ZIKV Paraiba/2015 [9]; [21]): dose-dependent inhibitory effect; pEC50 (ZIKV DAKAR B11514): 5.82; pEC50 (ZIKV MR-766 [14]): 6.01; pEC50 (ZIKV PRVABC59): 6.21; pEC50 (ZIKV KX197192.1 strain): 5.64
Cc1c(-c2ccc(-c3ccccc3F)cc2)nc2ccc(F)cc2c1C(=O)O [Brequinar, Brequinar sodium salt hydrate] | most potent; also recorded: potent | moderate | weakest and weak | < 33.30 µM |  | moderate | most potent; also recorded: potent | potent | Potent | 238 µM | > 1350 µM | 5.82 | 5.99 | > 100 µM | > 100 µM | 4.37 | 7.30 | < 0.13 µM | 7.10 | < 0.41 µM | MIC (ZIKV Paraiba/2015 [6]; Zika virus): < 0.04 µM; pEC50 (ZIKV Paraiba/2015 [6]; Zika virus): 7.70; CC50 [12]: > 50 µM; CC50 [13]: > 50 µM; effect on production of infectious viral progeny (viral titers) (ZIKV Paraiba/2015 [9]; [21]): dose-dependent inhibitory effect; effect on production of infectious viral progeny (viral titers) (ZIKV Paraiba/2015 [9]; 10 EC50, 24 and 48 h post-treatment): Complete inhibition; pEC50 (ZIKV MR-766 [14]): 7.10; pEC50 (ZIKV MR-766 [15]): 6.52
COc1c(C)c2c(c(O)c1C/C=C(\C)CCC(=O)O)C(=O)OC2 [Mycophenolic acid] | moderate to weak | Potent; also recorded: moderate | potent | < 11.10 µM | weak | weak | most potent; also recorded: potent | potent | weak | 275 µM | > 1350 µM | 5.37 | 5.36 | > 100 µM | > 100 µM | 5.12 | 6.82 | < 1.23 µM | 6.66 | < 1.23 µM | MIC (ZIKV Paraiba/2015 [6]; Zika virus): < 11.1 µM; pEC50 (ZIKV Paraiba/2015 [6]; Zika virus): 6.19; CC50 [12]: > 50 µM; CC50 [13]: > 50 µM; effect on production of infectious viral progeny (viral titers) (ZIKV Paraiba/2015 [9]; [21]): dose-dependent inhibitory effect; pEC50 (ZIKV-MEX-2-81): 6.40; pEC50 (ZIKV MR-766 [14]): 6.96; pEC50 (ZIKV PRVABC59): 6.85; pEC50 (ZIKV SL1602 strain): 6.38; pEC50 (ZIKV MEX_I_7 strain): > 5.70; pEC50 [16]: 7.00
COC1=CC(c2cc3ccccc3[nH]2)=N/C1=C\c1[nH]c(C)cc1C [Obatoclax, Obatoclax mesylate] | moderate to weak | moderate |  | < 3.70 µM | Potent |  |  |  | weak | 17.6 µM | 60.4 µM | 6.20 | 6.24 | < 0.01 µM | < 11.1 µM | 5.53 | 6.43 | < 1.23 µM | 6.39 | < 1.23 µM | inhibitor category based on SI-MTT (ZIKV Paraiba/2015 [3]; [18]): weak; inhibitor category based on SI-XTT (ZIKV Paraiba/2015 [3]; [18]): potent; inhibitor category based on SI-XTT (ZIKV Paraiba/2015 [5]): potent; inhibitor category based on SI-MTT (ZIKV MR-766 strain; ZIKV MR-766, Vero): weak; inhibitor category based on SI-XTT (ZIKV MR-766 strain; ZIKV MR-766, Vero): moderate; inhibitor category based on SI-MTT (ZIKV PRVABC59 strain; ZIKV PRVABC59, Vero): weak; inhibitor category based on SI-XTT (ZIKV PRVABC59 strain; ZIKV PRVABC59, Vero): potent; MIC (ZIKV Paraiba/2015 [6]; Zika virus): < 1.23 µM; pEC50 (ZIKV Paraiba/2015 [6]; Zika virus): 6.19; CC50 [12]: > 50 µM; CC50 [13]: > 50 µM; effect on production of infectious viral progeny (viral titers) (ZIKV Paraiba/2015 [9]; 1 EC50, all the analyzed times, may be caused by toxicity): Complete inhibition; pEC50 (ZIKV FB-GWUH-2016): 7.40; inhibitory activity [17]: did not exhibit inhibitory activity
